Common to all, as to assay type: cell-based
Assay [1] relates to CR3085 cell line (Large intestine/Colorectum). The assay is described as follows: CellTiter-Glo cell viability assay, CR3085. Particulars: Homo sapiens. Here is the method: (§1) All cell lines are hyman primary cell lines cultured in DMEM/F12+10% FBS+supplemental growth factors, at 37° C. with 5% C02, as explained below. The cell lines are from large intestine/colorectum, stomach, liver, lung or pancreas (see table below). • DMEM/F12 (high glucose) (Gibco, Cat #11320033) • FBS (Cat #FND500, ExCell Bio) • CellTiter-Glo® Luminescent Cell Viability Assay (Cat # G7571, Promega. Stored at −20° C.). • 96 wells plate (Cat #3610, Corning) • DMEM/F12 medium (low glucose): 1:1 mixture of DMEM (low glucose) (Gibco, Cat #11885076) and F-12K (Gibco, Cat #21127022)
(§2) Two types of cell lines have been tested for the compound 26, namely CR3085 (Large intestine/Colorectum) and GA0060 (stomach), as shown below.
(§3) 1. Each well of a 96-well plate contains 90 μL of cell suspension with cells. The number of cells to be seeded is determined on the basis of a Cell Density Optimization Assay. 2. All 96-wells plates with cells are placed in an incubator overnight at 37° C. with 5% CO2.
(§4) 3. Dilute ABX464 and add 10 μL/well of ABX464 at the concentrations indicated (see plate map below). The final volume is 100 μL/well.
(§5) 4. Replace the old medium by pre-prepared fresh medium with ABX464 at the same concentrations indicated. The final volume is 100 μL/well.
(§6) 5. Cells are observed under a microscope ensuring the cells treated with vehicle control are in good condition. 6. Add 50 μL of CellTiter-Glo® Reagent to each well. 7. Mix contents for 2 minutes on an orbital shaker to facilitate cell lysis. 8. Allow the plate to incubate at room temperature for 10 minutes to stabilize luminescent signals. 9. Record luminescence using an EnVision Multi Label Reader.
(§7) Data analysis is performed using GraphPad Prism 7.0. To calculate IC50s, a dose-response curve is generated using a nonlinear regression model with a sigmoidal dose response. The formula of surviving rate is shown below, and the IC50s will be automatically generated by GraphPad Prism 7.0.
(§8) LumNone treated-LumMedium control is set as 100%.

Assay [2] deals with GA0060 cell line (Stomach). As to the kind of experiment: CellTiter-Glo cell viability assay, GA0060. Particulars: Homo sapiens. On the procedure:
as §1, §2, §3, §4, §5, §6, §7, §8
On the technique in general: ATP-based viability assays read luminescence as a measure of living cells.

In assay [3] the test system is PA3060 cell line (Pancreas). The assay is described as follows: CellTiter-Glo cell viability assay, PA3060. Particulars: Homo sapiens, 168 h, 7 days drug treatment. Here is the method: as §1, §3, §4, §5
(§9) 5. Cells are observed under a microscope ensuring the cells treated with vehicle control are in good condition. 6. Add 50 μL of CellTiter-Glo® Reagent to each well. 7. […] Record luminescence using an EnVision Multi Label Reader. […]

The test system of a further assay is LI0612 cell line (Liver). As to the kind of experiment: CellTiter-Glo cell viability assay, LI0612. Particulars: Homo sapiens, 168 h, 7 days drug treatment. Here is the method:
as §1, §3, §4, §5, §9

The subject of assay [4] is PA1266 cell line (Pancreas). As to the kind of experiment: CellTiter-Glo cell viability assay, PA1266. Particulars: Homo sapiens, 168 h, 7 days drug treatment. Here is the method: as §1, §3, §4, §5, §9
Assay [5] has as its system CR3150 cell line (Large intestine/Colorectum). As to the kind of experiment: CellTiter-Glo cell viability assay, CR3150. Particulars: Homo sapiens, 168 h, 7 days drug treatment. On the procedure: as §1, §3, §4, §5, §9
Assay [6] deals with PA0692 cell line (Pancreas). As to the kind of experiment: CellTiter-Glo cell viability assay, PA0692. Particulars: Homo sapiens, 168 h, 7 days drug treatment. On the procedure: as §1, §3, §4, §5, §9
In assay [7] the test system is CR0205 cell line (Large intestine/Colorectum). As to the kind of experiment: CellTiter-Glo cell viability assay, CR0205. Particulars: Homo sapiens, 168 h, 7 days drug treatment. On the procedure:
as §1, §3, §4, §5, §9

A further assay deals with LU2511 cell line (Lung). The assay is described as follows: CellTiter-Glo cell viability assay, LU2511. Particulars: Homo sapiens, 168 h, 7 days drug treatment. Here is the method:
as §1, §3, §4, §5, §9

For assay [8], the system named is PA1405 cell line (Pancreas). The assay is described as follows: CellTiter-Glo cell viability assay, PA1405. Particulars: Homo sapiens, 168 h, 7 days drug treatment. On the procedure:
as §1, §3, §4, §5, §9

The test system of a further assay is LU0387 cell line (Lung). As to the kind of experiment: CellTiter-Glo cell viability assay, LU0387. Particulars: Homo sapiens, 168 h, 7 days drug treatment. On the procedure:
as §1, §3, §4, §5, §9

The mark [9] stands for this setting: 168 h, CR3085, Large intestine/Colorectum, 7 days drug treatment, CellTiter-Glo.
Where [10] appears, read: 168 h, GA0060, Stomach, 7 days drug treatment, CellTiter-Glo.

Molecules are shown by their SMILES.

Regarding `FC(F)(F)c1ccc(Nc2ccc3cccc(Cl)c3n2)nc1` [Comparative compound 26, 8-chloro-N-(5-(trifluoromethyl)pyridin-2-yl)quinolin-2-amine], the IC50 in [1] (setting [9]) was 0.17 µM; in assay [1] (cell line Large intestine/Colorectum CR3085, restated in text without unit) it was 0.17 µM; in assay [2] (setting [10]), over 10 µM; in [2] (cell line stomach GA0060, restated in text without unit) it was over 10 µM.
For `FC(F)(F)Oc1ccc(Nc2ccc3cccc(Cl)c3n2)cc1` [ABX464, 8-Chloro-N-(4-(trifluoromethoxy)phenyl)quinolin-2-amine], the half-inhibitory concentration (IC50) came out at 3.71 µM in assay [3]; 4.75 µM in the assay on LI0612 cell line (Liver); 3.44 µM in assay [4]; 0.87 µM in assay [5]; 0.08 µM in assay [1] (setting [9]); 9.63 µM in assay [6]. The half-inhibitory concentration (IC50) in assay [2] (setting [10]) was 0.6 µM; in assay [7], 7.26 µM; in the assay on LU2511 cell line (Lung), 7.11 µM; in assay [8], 6.2 µM; with LU0387 cell line (Lung) it was 9.49 µM.

The IC50 is the point on the concentration scale where inhibition reaches its midpoint.

For the origin of these results see patent US20220071985A1, “QUINOLINE DERIVATIVES FOR USE IN THE TREATMENT OR PREVENTION OF CANCER” (ABIVAX, priority 2018, published 2022).
